According to PubChem BioAssay AID1963850 (Molecular Pharmacology Branch, DTP, NCI, 2024):

Tested on: 192522-019-R-J2-PDC complex tumor spheroid viability
Assay: Anticancer human tumor 192522-019-R-J2-PDC patient-derived colon adenocarcinoma cell line growth inhibition [POLQ]
Details: for IC50: curve of first compound; for viability, T/C: stronger effect = lower value
Procedure, shortened: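 Three-cell-type spheroids modelling solid tumor plus stroma served as the readout system; POL inhibitors were tested individually and in combination, concentration ranges set by clinical Cmax where known.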

[1] = second compound 0.0316 µM, first compound 0.0316 µM
[2] = second compound 0.0316 µM, first compound 0.1 µM
[3] = second compound 0.0316 µM, first compound 0.316 µM
[4] = second compound 0.0316 µM, first compound 1 µM
[5] = second compound 0.1 µM, first compound 0.0316 µM
[6] = second compound 0.1 µM, first compound 0.1 µM
[7] = second compound 0.1 µM, first compound 0.316 µM
[8] = second compound 0.1 µM, first compound 1 µM
[9] = second compound 0.316 µM, first compound 0.0316 µM
[10] = second compound 0.316 µM, first compound 0.1 µM
[11] = second compound 0.316 µM, first compound 0.316 µM
[12] = second compound 0.316 µM, first compound 1 µM
[13] = second compound 1 µM, first compound 0.0316 µM
[14] = second compound 1 µM, first compound 0.1 µM
[15] = second compound 1 µM, first compound 0.316 µM
[16] = second compound 1 µM, first compound 1 µM
[17] = second compound 3.16 µM, first compound 0.0316 µM
[18] = second compound 3.16 µM, first compound 0.1 µM
[19] = second compound 3.16 µM, first compound 0.316 µM
[20] = second compound 3.16 µM, first compound 1 µM
[21] = second compound 10 µM, first compound 0.0316 µM
[22] = second compound 10 µM, first compound 0.1 µM
[23] = second compound 10 µM, first compound 0.316 µM
[24] = second compound 10 µM, first compound 1 µM
[25] = second compound 0.0316 µM, first compound 0.00316 µM
[26] = second compound 0.0316 µM, first compound 0.01 µM
[27] = second compound 0.1 µM, first compound 0.00316 µM
[28] = second compound 0.1 µM, first compound 0.01 µM
[29] = second compound 0.316 µM, first compound 0.00316 µM
[30] = second compound 0.316 µM, first compound 0.01 µM
[31] = second compound 1 µM, first compound 0.00316 µM
[32] = second compound 1 µM, first compound 0.01 µM
[33] = second compound 3.16 µM, first compound 0.00316 µM
[34] = second compound 3.16 µM, first compound 0.01 µM
[35] = second compound 10 µM, first compound 0.00316 µM
[36] = second compound 10 µM, first compound 0.01 µM
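Also: spheroids exposed to drugs for seven days before reading.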
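For viability, T/C in this document: 100% = DMSO vehicle control viability in luminescence.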

## COc1cc(C2c3cc4c(cc3C(OC3OC5COC(C)OC5C(O)C3O)C3COC(=O)C23)OCO4)cc(OC)c1O (stereo not drawn) + COC1C(OC(N)=O)C(O)C(Oc2ccc3c(O)c(NC(=O)c4ccc(O)c(CC=C(C)C)c4)c(=O)oc3c2C)OC1(C)C
Second compound 0.0316 µM
  IC50: > 10000 nM
Second compound 0.1 µM
  IC50: > 10000 nM
Second compound 0.316 µM
  IC50: > 10000 nM
Second compound 1 µM
  IC50: > 10000 nM
Second compound 3.16 µM
  IC50: > 10000 nM
Second compound 10 µM
  IC50: > 10000 nM
[1]
  viability, T/C: 106%
[2]
  viability, T/C: 89.3%
[3]
  viability, T/C: 92.4%
[4]
  viability, T/C: 82.1%
Second compound 0.0316 µM, first compound 3.16 µM
  viability, T/C: 58.6%
Second compound 0.0316 µM, first compound 10 µM
  viability, T/C: 54.2%
[5]
  viability, T/C: 104%
[6]
  viability, T/C: 95.7%
[7]
  viability, T/C: 100%
[8]
  viability, T/C: 84%
Second compound 0.1 µM, first compound 3.16 µM
  viability, T/C: 56.8%
Second compound 0.1 µM, first compound 10 µM
  viability, T/C: 59.4%
[9]
  viability, T/C: 95.6%
[10]
  viability, T/C: 97.8%
[11]
  viability, T/C: 101%
[12]
  viability, T/C: 83%
Second compound 0.316 µM, first compound 3.16 µM
  viability, T/C: 55.2%
Second compound 0.316 µM, first compound 10 µM
  viability, T/C: 64%
[13]
  viability, T/C: 106%
[14]
  viability, T/C: 101%
[15]
  viability, T/C: 96.6%
[16]
  viability, T/C: 103%
Second compound 1 µM, first compound 3.16 µM
  viability, T/C: 59.7%
Second compound 1 µM, first compound 10 µM
  viability, T/C: 57.4%
[17]
  viability, T/C: 110%
[18]
  viability, T/C: 109%
[19]
  viability, T/C: 99.9%
[20]
  viability, T/C: 84.7%
Second compound 3.16 µM, first compound 3.16 µM
  viability, T/C: 67%
Second compound 3.16 µM, first compound 10 µM
  viability, T/C: 60.6%
[21]
  viability, T/C: 107%
[22]
  viability, T/C: 96.2%
[23]
  viability, T/C: 103%
[24]
  viability, T/C: 88.5%
Second compound 10 µM, first compound 3.16 µM
  viability, T/C: 65.4%
Second compound 10 µM, first compound 10 µM
  viability, T/C: 61.4%

## Cn1ncnc1[C@H]1c2n[nH]c(=O)c3cc(F)cc(c23)N[C@@H]1c1ccc(F)cc1 + Cc1cccc(N(C)C(=O)C2C(O)CCN2c2nc(C)cc(C(F)(F)F)c2C#N)c1
Second compound 0.0316 µM
  IC50: > 100 nM
Second compound 0.1 µM
  IC50: > 100 nM
Second compound 0.316 µM
  IC50: > 100 nM
Second compound 1 µM
  IC50: > 100 nM
Second compound 3.16 µM
  IC50: > 100 nM
Second compound 10 µM
  IC50: > 100 nM
Second compound 0.0316 µM, first compound 0.000316 µM
  viability, T/C: 109%
Second compound 0.0316 µM, first compound 0.001 µM
  viability, T/C: 96.1%
[25]
  viability, T/C: 96.3%
[26]
  viability, T/C: 103%
[1]
  viability, T/C: 110%
[2]
  viability, T/C: 88.6%
Second compound 0.1 µM, first compound 0.000316 µM
  viability, T/C: 99.2%
Second compound 0.1 µM, first compound 0.001 µM
  viability, T/C: 96.3%
[27]
  viability, T/C: 105%
[28]
  viability, T/C: 101%
[5]
  viability, T/C: 108%
[6]
  viability, T/C: 101%
Second compound 0.316 µM, first compound 0.000316 µM
  viability, T/C: 111%
Second compound 0.316 µM, first compound 0.001 µM
  viability, T/C: 103%
[29]
  viability, T/C: 114%
[30]
  viability, T/C: 105%
[9]
  viability, T/C: 103%
[10]
  viability, T/C: 102%
Second compound 1 µM, first compound 0.000316 µM
  viability, T/C: 110%
Second compound 1 µM, first compound 0.001 µM
  viability, T/C: 108%
[31]
  viability, T/C: 109%
[32]
  viability, T/C: 103%
[13]
  viability, T/C: 100%
[14]
  viability, T/C: 95.3%
Second compound 3.16 µM, first compound 0.000316 µM
  viability, T/C: 125%
Second compound 3.16 µM, first compound 0.001 µM
  viability, T/C: 106%
[33]
  viability, T/C: 112%
[34]
  viability, T/C: 101%
[17]
  viability, T/C: 118%
[18]
  viability, T/C: 96.9%
Second compound 10 µM, first compound 0.000316 µM
  viability, T/C: 114%
Second compound 10 µM, first compound 0.001 µM
  viability, T/C: 103%
[35]
  viability, T/C: 119%
[36]
  viability, T/C: 102%
[21]
  viability, T/C: 111%
[22]
  viability, T/C: 101%

## CCc1c2c(nc3ccc(O)cc13)-c1cc3c(c(=O)n1C2)COC(=O)[C@]3(O)CC + COC1C(OC(N)=O)C(O)C(Oc2ccc3c(O)c(NC(=O)c4ccc(O)c(CC=C(C)C)c4)c(=O)oc3c2C)OC1(C)C
Second compound 0.0316 µM
  IC50: 25.4 nM
Second compound 0.1 µM
  IC50: 51.5 nM
Second compound 0.316 µM
  IC50: 41.9 nM
Second compound 1 µM
  IC50: 33.9 nM
Second compound 3.16 µM
  IC50: 42.2 nM
Second compound 10 µM
  IC50: 43.4 nM
[25]
  viability, T/C: 96.3%
[26]
  viability, T/C: 52.5%
[1]
  viability, T/C: 52.3%
[2]
  viability, T/C: 47%
[3]
  viability, T/C: 35.1%
[4]
  viability, T/C: 23.8%
[27]
  viability, T/C: 84%
[28]
  viability, T/C: 59%
[5]
  viability, T/C: 55.8%
[6]
  viability, T/C: 49.7%
[7]
  viability, T/C: 31.7%
[8]
  viability, T/C: 27.5%
[29]
  viability, T/C: 83.7%
[30]
  viability, T/C: 56%
[9]
  viability, T/C: 53.7%
[10]
  viability, T/C: 47.5%
[11]
  viability, T/C: 31.4%
[12]
  viability, T/C: 25.8%
[31]
  viability, T/C: 82%
[32]
  viability, T/C: 52.3%
[13]
  viability, T/C: 57.9%
[14]
  viability, T/C: 43.3%
[15]
  viability, T/C: 30.1%
[16]
  viability, T/C: 27.9%
[33]
  viability, T/C: 86.7%
[34]
  viability, T/C: 57.3%
[17]
  viability, T/C: 57.9%
[18]
  viability, T/C: 40.3%
[19]
  viability, T/C: 35.9%
[20]
  viability, T/C: 23.8%
[35]
  viability, T/C: 83.3%
[36]
  viability, T/C: 54.6%
[21]
  viability, T/C: 59.4%
[22]
  viability, T/C: 41.9%
[23]
  viability, T/C: 35.5%
[24]
  viability, T/C: 27.8%

## CCc1c2c(nc3ccc(O)cc13)-c1cc3c(c(=O)n1C2)COC(=O)[C@]3(O)CC + Cc1cccc(N(C)C(=O)C2C(O)CCN2c2nc(C)cc(C(F)(F)F)c2C#N)c1
Second compound 0.0316 µM
  IC50: 131 nM
Second compound 0.1 µM
  IC50: 136 nM
Second compound 0.316 µM
  IC50: 158 nM
Second compound 1 µM
  IC50: 229 nM
Second compound 3.16 µM
  IC50: 234 nM
Second compound 10 µM
  IC50: 112 nM
[25]
  viability, T/C: 95.4%
[26]
  viability, T/C: 63.6%
[1]
  viability, T/C: 72.2%
[2]
  viability, T/C: 53.6%
[3]
  viability, T/C: 40.3%
[4]
  viability, T/C: 31.1%
[27]
  viability, T/C: 91.5%
[28]
  viability, T/C: 66.2%
[5]
  viability, T/C: 75.8%
[6]
  viability, T/C: 52.3%
[7]
  viability, T/C: 36.7%
[8]
  viability, T/C: 33.5%
[29]
  viability, T/C: 104%
[30]
  viability, T/C: 72.8%
[9]
  viability, T/C: 70.5%
[10]
  viability, T/C: 60.7%
[11]
  viability, T/C: 38.8%
[12]
  viability, T/C: 33.9%
[31]
  viability, T/C: 95.1%
[32]
  viability, T/C: 78.1%
[13]
  viability, T/C: 71.9%
[14]
  viability, T/C: 61%
[15]
  viability, T/C: 44.5%
[16]
  viability, T/C: 35%
[33]
  viability, T/C: 101%
[34]
  viability, T/C: 82.6%
[17]
  viability, T/C: 79.1%
[18]
  viability, T/C: 57.3%
[19]
  viability, T/C: 45.8%
[20]
  viability, T/C: 36.4%
[35]
  viability, T/C: 97.6%
[36]
  viability, T/C: 69.4%
[21]
  viability, T/C: 68.8%
[22]
  viability, T/C: 49.4%
[23]
  viability, T/C: 42.6%
[24]
  viability, T/C: 36.5%
